From article PMC11476419, “Analysis of Punicalin and Punicalagin Interaction with PDIA3 and PDIA1” (International Journal of Molecular Sciences, 2024)

Experiments:
PDIA3 [1] = biological target: T1, PDIA3 (Homo sapiens, UniProt P30101); design: method as in Paglia et al. [40]; conditions: reduced PDIA3; ref Paglia et al. [40]; cited from earlier work
T1 construct: The mature recombinant form (devoid of the N-terminal presence) of the human PDIA3 protein was expressed and purified; made in house
T1 sequence (P30101 25-505): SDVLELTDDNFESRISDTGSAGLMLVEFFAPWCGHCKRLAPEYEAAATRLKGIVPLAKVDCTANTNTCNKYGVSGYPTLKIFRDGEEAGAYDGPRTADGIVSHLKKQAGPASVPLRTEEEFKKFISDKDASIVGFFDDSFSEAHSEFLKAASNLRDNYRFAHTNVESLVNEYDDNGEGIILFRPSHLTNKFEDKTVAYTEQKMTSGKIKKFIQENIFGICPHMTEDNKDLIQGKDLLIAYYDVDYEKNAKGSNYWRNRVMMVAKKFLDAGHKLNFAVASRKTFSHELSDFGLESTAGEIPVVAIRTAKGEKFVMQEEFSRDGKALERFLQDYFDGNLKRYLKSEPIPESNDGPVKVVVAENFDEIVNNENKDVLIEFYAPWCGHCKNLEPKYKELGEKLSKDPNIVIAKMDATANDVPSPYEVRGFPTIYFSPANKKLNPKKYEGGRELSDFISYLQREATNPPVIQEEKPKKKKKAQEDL

PDIA1 [2] = biological target: T2, PDIA1 (Homo sapiens, UniProt P07237); experiment: Insulin turbidity assay, disulfide reductase activity; type: biochemical; conditions: insulin substrate, PDIA1 800 nM, reducing conditions
T2 construct: The mature human PDIA1 with an N-terminal His6x-tag was expressed and purified; His6 (N); made in house
Protocol: (§1) To further evaluate the inhibitory effect of punicalin and punicalagin on the enzymatic activity of the two proteins, we performed a different assay using insulin, a physiologically more appropriate substrate. The results obtained are reported in Figure 4 and show again a lesser inhibitory effect of punicalin compared to punicalagin, as observed with the glutathione-based assay.
PDI disulfide reductase activity was assayed by measuring the reduction of insulin catalyzed by PDIs with DTT. A 50 μM stock solution of each PDI was reduced using TCEP (5 mM final concentration) for 90 min at room temperature. […] After incubation, an equal volume of the 2× reaction mixture (consisting of DTT 50 μM and human insulin 0.32 mM) was added. Protein activity was evaluated by monitoring the increase in turbidity of the solutions at 600 nm.
(§2) In both assays, the inhibition constants were extrapolated by GraphPad Prism 8.0 software (GraphPad Software, San Diego, CA, USA), plotting the obtained data as logarithm dose–response curves.

PDIA3 [3] = test system: PDIA3; design: method as in PMID 37686085; conditions: 30 µM, 24 h after treatment; ref [34]; cited from earlier work
PDIA3 [4] = biological target: T1, PDIA3; experiment: Insulin turbidity assay, disulfide reductase activity; type: biochemical; conditions: insulin substrate, PDIA3 1600 nM, reducing conditions
Protocol: as §1
PDI disulfide reductase activity was assayed by measuring the reduction of insulin catalyzed by PDIs with DTT. A 50 μM stock solution of each PDI was reduced using TCEP (5 mM final concentration) for 90 min at room temperature. Aliquots of the stock solution were diluted in the incubation mixture (PDIA1 1.6 µM and PDIA3 3.2 µM) containing sodium phosphate buffer (100 mM sodium phosphate, 2 mM EDTA, pH 7.0) added with punicalin/punicalagin (concentration ranging from 0 to 50 µM) and incubated at 37 °C for 1 h. After incubation, an equal volume of the 2× reaction mixture (consisting of DTT 50 μM and human insulin 0.32 mM) was added. Protein activity was evaluated by monitoring the increase in turbidity of the solutions at 600 nm.
as §2

PDIA1 [5] = biological target: T2, PDIA1; experiment: Differential scanning fluorimetry (protein thermal shift); type: binding; conditions: PDIA1, compound 20 µM
Protocol: (§3) The effect of punicalin and punicalagin on the stability of both proteins was evaluated by differential scanning fluorimetry (DSF). Initially, PDIA1 and PDIA3 were incubated at 25 °C for 20 min with both substances at 5 µM and 20 µM concentrations. […] The reading was optimized at intervals of 0.2 °C every 5 s. Once the fluorescence profile was obtained, the data were analyzed with the GraphPad prism program, by either fitting data with a Boltzmann equation or calculating the first derivative. In DSF analyses, a gradual increase in fluorescence is observed, due to a conformational change in the protein, which reaches a maximum value and then decreases because of protein precipitation.
(§4) To evaluate Tm, we focused the attention on the main transition, and thus we fitted, with a Boltzmann equation, the data in the range of 25–55 °C for PDIA3 and in the range of 45–70 °C for PDIA1. Again, the two substances show a destabilizing effect, which was more evident for PDIA3 than for PDIA1. In fact, punicalagin and punicalin at a 20 µM concentration cause a shift of Tm of at least 6 °C in the case of PDIA3, while this is approximately 3 °C for PDIA1 (Figure 7).
(§5) Protein stability in the absence and presence of punicalagin/punicalin was tested by means of the fluorescence-based thermal stability assay or differential scanning fluorimetry (DSF) developed by Pantoliano and coworkers. DSF records the fluorescence emission signal from the binding of a dye (SYPRO orange) to the exposed hydrophobic patches upon protein unfolding. Fluorescence measurements were performed using a CFX96 Connect RT-PCR instrument (BioRad, Hercules, CA, USA). Aliquots of 18 μL of protein solution (2 μM), freshly diluted in Tris Buffered saline (50 mM TrisHCl, pH 8.0, 150 mM NaCl) containing 0.1 mM DTT, 0.2 mM EDTA, and 1: 1000 dilution of SYPRO Orange (50 mM stock solution in DMSO), were distributed in a 96-well plate. Sample wells were added with punicalagin or punicalin at a final concentration of 5 uM or 20 μM by adding 2 μL of a 10-fold concentrated freshly prepared stock solution. As control, the protein solution was added with 2 μL of the dilution buffer. A melting point analysis was recorded by increasing the temperature from 25 to 70 °C with an increment of 0.2 °C every 5 s and reading, at each temperature, the fluorescence in fluorescence resonance energy transfer mode (FRET). Each measure was the average of three sample well readings, and each DSF experiment was repeated at least three times. To calculate Tm values, DSF data from the melting curve were exported and fitted to a Boltzmann equation using GraphPad software. The effect of punicalagin and punicalin was evaluated comparing the Tm values in the presence and absence of each molecule.

PDIA3 [6] = biological target: T1, PDIA3; experiment: as above; type: binding
Protocol: as §3, §4, §5

PDIA1 [7] = biological target: T2, PDIA1; design: method as in Paglia et al. [40]; conditions: reduced PDIA1; ref Paglia et al. [40]; cited from earlier work

T2 sequence (P07237 18-508): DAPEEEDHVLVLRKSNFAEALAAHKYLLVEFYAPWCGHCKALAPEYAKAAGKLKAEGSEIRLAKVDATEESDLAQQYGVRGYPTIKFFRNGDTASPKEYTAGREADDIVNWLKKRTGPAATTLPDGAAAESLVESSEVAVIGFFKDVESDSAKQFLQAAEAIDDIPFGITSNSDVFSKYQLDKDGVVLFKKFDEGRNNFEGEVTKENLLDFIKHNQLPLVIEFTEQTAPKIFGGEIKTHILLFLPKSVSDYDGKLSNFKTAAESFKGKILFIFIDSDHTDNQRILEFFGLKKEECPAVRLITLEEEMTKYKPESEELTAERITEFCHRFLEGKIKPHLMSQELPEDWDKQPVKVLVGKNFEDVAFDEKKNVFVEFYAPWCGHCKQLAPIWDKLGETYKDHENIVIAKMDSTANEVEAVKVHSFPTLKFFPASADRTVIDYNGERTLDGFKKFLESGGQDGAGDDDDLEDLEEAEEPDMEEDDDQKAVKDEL

SMILES: O=C1O[C@H]2[C@@H]3OC(=O)c4cc(O)c(O)c(O)c4-c4c(O)c(O)c5oc(=O)c6c(c(O)c(O)c7oc(=O)c4c5c76)-c4c(cc(O)c(O)c4O)C(=O)OC[C@H]3OC(O)[C@@H]2OC(=O)c2cc(O)c(O)c(O)c2-c2c1cc(O)c(O)c2O (mixture of isomers) [Punicalagin, punicalagin]
- Stern–Volmer constant (KSV) (PDIA3 [1]): 157.1 ± 1.9 M^−1 × 10^3
- IC50 (PDIA1 [2]): 13.7 µM
- formation of PDIA3 protein aggregates (PDIA3 [3]): induced the formation of protein aggregates
- IC50 (PDIA3 [4]): 8.8 µM
- shift towards lower temperature of second main transition (first-derivative graph) (PDIA1 [5]): about 5 °C
- shift of Tm (destabilizing, Boltzmann fit) (PDIA1 [5]; fit range 45–70 °C): approximately 3 °C
- left shift of first transition (first-derivative graph) (PDIA3 [6]; PDIA3, compound 20 µM): about 3 °C
- shift towards lower temperature of second transition (first-derivative graph) (PDIA3 [6]; PDIA3, compound 20 µM): more than 10 °C
- shift of Tm (destabilizing, Boltzmann fit) (PDIA3 [6]; PDIA3, compound 20 µM, fit range 25–55 °C): at least 6 °C
- Tm of PDIA3 after addition of compound (PDIA3 [6]; PDIA3 alone Tm 46 °C): below 40 °C
- Stern–Volmer constant (KSV) (PDIA1 [7]): 97.9 ± 2.1 M^−1 × 10^3
